ChEMBL document CHEMBL4483862, “Open-source discovery of chemical leads for next-generation chemoprotective antimalarials” (2018)

System: Plasmodium berghei
Assay: Luciferase/luciferin-expressing antifolate-resistant parasites were used to infect a culture of HepG2 cells that were pre-incubated with compounds. Infected hepatocytes emit light due to the luciferase reaction. Assay results are presented as the percent inhibition of light emission compared to control. […]
Format: functional
Conditions: sporozoite; for IC90: read-out: LUCIFERASE INFECTION ASSAY - IC90
[1] = read-out: LUCIFERASE INFECTION ASSAY - IC50

| SMILES | IC90 | IC50 [1] | other results |
| --- | --- | --- | --- |
| C1=C(c2c[nH]c3ncccc23)CCN(c2ncnc3n[nH]cc23)C1 | > 10 µM |  | IC50 (HEPG2TOX_HILL_SLOPE 0.924, HEPG2TOX_R_SQUARED 0.995, PBLUC_HILL_SLOPE 2.5, PBLUC_R_SQUARED 0.123, read-out: LUCIFERASE INFECTION ASSAY - IC50): 7.5 µM |
| CNS(=O)(=O)c1ccc(C(=O)Nc2ccc(Nc3ccccc3)cc2)o1 | 1.18 µM |  | IC50 (HEPG2TOX_HILL_SLOPE 2.07, HEPG2TOX_R_SQUARED 0.347, PBLUC_HILL_SLOPE 43.9, PBLUC_R_SQUARED 0.459, read-out: LUCIFERASE INFECTION ASSAY - IC50): 1.12 µM |
| CCC(CO)Nc1ccc2ncc(Br)n2n1 (stereo not drawn) | > 11.6 µM |  | IC50 (HEPG2TOX_HILL_SLOPE 18.2, HEPG2TOX_R_SQUARED 0.907, PBLUC_HILL_SLOPE 0.763, PBLUC_R_SQUARED 0.712, read-out: LUCIFERASE INFECTION ASSAY - IC50): 4.83 µM |
| CNc1nc2cnc(Nc3ccc(OC)cc3C)cc2n1-c1cc(OC)c(OC)c(OC)c1 | > 10 µM | > 10 µM |  |
| CO/N=C(/CS(=O)(=O)c1ccc(Cl)cc1)c1ccc(Cl)cc1 | 3.25 µM |  | IC50 (HEPG2TOX_HILL_SLOPE 1.88, HEPG2TOX_R_SQUARED 0.932, PBLUC_HILL_SLOPE 2.15, PBLUC_R_SQUARED 0.742, read-out: LUCIFERASE INFECTION ASSAY - IC50): 1.17 µM |
| COCC/N=c1\scc(-c2ccc(OC(F)F)cc2)n1/N=C/c1ccccc1F | > 10 µM | > 10 µM |  |
| CC/C(=N\NC(=O)COc1cccc(Br)c1)c1cc(F)ccc1O | 9.51 µM |  | IC50 (HEPG2TOX_HILL_SLOPE 1.42, HEPG2TOX_R_SQUARED 0.962, PBLUC_HILL_SLOPE 3.55, PBLUC_R_SQUARED 0.0785, read-out: LUCIFERASE INFECTION ASSAY - IC50): 5.12 µM |
| O=C(COc1ccccc1-c1ccccc1)Nc1nc(-c2ccccn2)cs1 | 9.35 µM |  | IC50 (HEPG2TOX_HILL_SLOPE 2.53, HEPG2TOX_R_SQUARED 0.481, PBLUC_HILL_SLOPE 10.3, PBLUC_R_SQUARED 0.199, read-out: LUCIFERASE INFECTION ASSAY - IC50): 7.56 µM |
| Cc1ccc(C(=N)NOC(=O)c2cccc(Cn3cc(C(F)(F)F)ccc3=O)c2)cc1 | > 7.69 µM | > 7.69 µM |  |
| O=S(=O)(c1ccc2ccccc2c1)N1CCN(c2ncc(C(F)(F)F)cc2Cl)CC1 | > 7.24 µM | > 7.24 µM |  |
| CN(C)c1ccc(C(c2ccc(OC(F)F)cc2)c2ccc(N(C)C)cc2)cc1 | 6.27 µM |  | IC50 (HEPG2TOX_HILL_SLOPE 3.6, HEPG2TOX_R_SQUARED 0.971, PBLUC_HILL_SLOPE 3.21, PBLUC_R_SQUARED 0.781, read-out: LUCIFERASE INFECTION ASSAY - IC50): 3.16 µM |
| C/N=c1\scc(-c2ccccc2OC)n1/N=C/c1ccc[nH]1 | 0.0612 µM |  | IC50 (PBLUC_HILL_SLOPE 6.06, PBLUC_R_SQUARED 0.259, read-out: LUCIFERASE INFECTION ASSAY - IC50): 0.0426 µM |
| CCCn1c(NC(=O)c2oc3ccccc3c2COCC)nc2ccccc21 | > 10 µM |  | IC50 (PBLUC_HILL_SLOPE 8.76, PBLUC_R_SQUARED 0.513, read-out: LUCIFERASE INFECTION ASSAY - IC50): 8.84 µM |
| O=C1Nc2ccc([N+](=O)[O-])cc2C12NNc1ccccc1O2 (stereo not drawn) | > 10 µM | > 10 µM |  |
| CN1C(=O)Cc2cc(C3=NNC(=Nc4ccccc4F)SC3)ccc21 | > 10 µM | > 10 µM |  |
| O=C(Nc1cc([N+](=O)[O-])ccc1Cl)Nc1ccccc1-c1nc2ccccc2[nH]1 | > 10 µM | > 10 µM |  |
| COc1ccc(CC(=O)N2CCN(C)c3nc4ccccc4nc32)cc1F | 9.57 µM |  | IC50 (HEPG2TOX_HILL_SLOPE 1.64, HEPG2TOX_R_SQUARED 0.943, PBLUC_HILL_SLOPE 1.87, PBLUC_R_SQUARED 0.437, read-out: LUCIFERASE INFECTION ASSAY - IC50): 2.96 µM |
| Cc1onc(-c2c(Cl)cccc2Cl)c1CO/N=C(\C#N)c1c(Cl)cccc1Cl | > 7.25 µM | > 7.25 µM |  |
| Cc1ccc(C(C)C)c(OCc2nnnn2-c2ccc(Br)cc2)c1 | > 8.52 µM | 4.96 µM |  |
| O=C(Nc1nccs1)C1CCCNC1 (stereo not drawn) | > 10 µM |  | IC50 (PBLUC_HILL_SLOPE 12.1, PBLUC_R_SQUARED 0.548, read-out: LUCIFERASE INFECTION ASSAY - IC50): 8.7 µM |
| CCOC(=O)c1c(NC(=O)C(C)N2CCN(C(=O)c3ccco3)CC2)sc2c1CCCC2 (stereo not drawn) | > 10 µM |  | IC50 (PBLUC_HILL_SLOPE 16.5, PBLUC_R_SQUARED 0.188, read-out: LUCIFERASE INFECTION ASSAY - IC50): 9.7 µM |
| COc1cc(-c2cnc3c(Nc4cccc(OC(F)(F)C(F)F)c4)nccn23)cc(OC)c1OC | 5.38 µM |  | IC50 (HEPG2TOX_HILL_SLOPE 8.4, HEPG2TOX_R_SQUARED 0.356, PBLUC_HILL_SLOPE 3.39, PBLUC_R_SQUARED 0.397, read-out: LUCIFERASE INFECTION ASSAY - IC50): 2.81 µM |

| SMILES | IC90 | IC50 [1] | other results |
| --- | --- | --- | --- |
| N#C/C(=N\Nc1ccc(Cl)cc1Cl)C(=O)c1ccc(Cl)cc1 | 1.16 µM |  | IC50 (HEPG2TOX_HILL_SLOPE 1.3, HEPG2TOX_R_SQUARED 0.915, PBLUC_HILL_SLOPE 13.3, PBLUC_R_SQUARED 0.668, read-out: LUCIFERASE INFECTION ASSAY - IC50): 0.987 µM |
| CCCSC(=S)c1c(C)nn(-c2ccccc2)c1O | > 11.3 µM |  | IC50 (PBLUC_HILL_SLOPE 10.5, PBLUC_R_SQUARED 0.318, read-out: LUCIFERASE INFECTION ASSAY - IC50): 10.1 µM |
| C=C(C)[C@@H]1CC=C(CN2CCC3(CC2)C(=O)N(Cc2cccnc2)C(=O)N3CCc2ccccc2)CC1 | > 6.62 µM |  | IC50 (HEPG2TOX_HILL_SLOPE 8.2, HEPG2TOX_R_SQUARED 0.91, PBLUC_HILL_SLOPE 3.93, PBLUC_R_SQUARED 0.652, read-out: LUCIFERASE INFECTION ASSAY - IC50): 3.82 µM |
| CN(C)c1ccc(C(c2cc(C(C)(C)C)c(O)c(C(C)(C)C)c2)N2CCCCC2)cc1 (stereo not drawn) | > 10 µM | > 10 µM |  |
| c1ccc(-c2nc3sccn3c2CSc2nnnn2C2CCCC2)cc1 | > 10 µM |  | IC50 (PBLUC_HILL_SLOPE 2.99, PBLUC_R_SQUARED 0.0258, read-out: LUCIFERASE INFECTION ASSAY - IC50): 8.01 µM |
| O=C(Nc1cccc(S(=O)(=O)NC2=NCCC2)c1)c1ccc2nccnc2c1 | > 10 µM | > 10 µM |  |
| CCN(C(S)=Nc1cccnc1)c1cccc2ccccc12 | > 10 µM |  | IC50 (HEPG2TOX_HILL_SLOPE 1.34, HEPG2TOX_R_SQUARED 0.711, PBLUC_HILL_SLOPE 4.21, PBLUC_R_SQUARED 0.184, read-out: LUCIFERASE INFECTION ASSAY - IC50): 7.6 µM |
| CCn1c2ccc(Cl)cc2c2cc(Cl)ccc21 | > 12.5 µM | > 12.5 µM |  |
| O=C(Nc1ccccn1)c1ccc(Cl)c(S(=O)(=O)N(Cc2ccccc2)c2ccccc2)c1 | > 10 µM |  | IC50 (PBLUC_HILL_SLOPE 2.32, PBLUC_R_SQUARED 0.355, read-out: LUCIFERASE INFECTION ASSAY - IC50): 5.62 µM |
| COc1cc(-c2cnc3cnc(-c4ccccc4N(C)C)cn23)ccc1O | > 9.16 µM |  | IC50 (HEPG2TOX_HILL_SLOPE 8.81, HEPG2TOX_R_SQUARED 0.374, PBLUC_HILL_SLOPE 9.99, PBLUC_R_SQUARED 0.0967, read-out: LUCIFERASE INFECTION ASSAY - IC50): 7.81 µM |
| COc1ccccc1C(CNC(=O)c1ccc(-c2ccccc2Cl)o1)N1CCCC1 (stereo not drawn) | 9.73 µM |  | IC50 (PBLUC_HILL_SLOPE 3.28, PBLUC_R_SQUARED 0.202, read-out: LUCIFERASE INFECTION ASSAY - IC50): 4.98 µM |
| CCOc1ccc(S(=O)(=O)N2c3ccccc3C(C(N)=O)CC2C)cc1OCC (stereo not drawn) | > 10 µM | > 10 µM |  |
| CC(c1nc(N)nc(N(C)C)n1)N(C)Cc1ccc(-c2ccc(Br)cc2)o1 (stereo not drawn) | > 10 µM | > 10 µM |  |
| COc1cc(C(=O)OCC(=O)c2ccc(-c3ccccc3)cc2)c([N+](=O)[O-])cc1OC | > 10 µM |  | IC50 (PBLUC_HILL_SLOPE 1.3, PBLUC_R_SQUARED 0.199, read-out: LUCIFERASE INFECTION ASSAY - IC50): > 10 µM |
| O=C(Nc1nc2ccccc2[nH]1)c1oc2ccccc2c1COc1ccccc1 | > 10 µM | > 10 µM |  |
| COc1cc(NC(=O)Nc2ccc3nc(Cc4ccccc4)nn3c2)cc(OC)c1OC | 4.31 µM |  | IC50 (PBLUC_HILL_SLOPE 20.6, PBLUC_R_SQUARED 0.32, read-out: LUCIFERASE INFECTION ASSAY - IC50): 3.87 µM |
| COCCCN=C(S)NNC(=O)c1ccc(C(C)(C)C)cc1 | > 10.2 µM |  | IC50 (PBLUC_HILL_SLOPE 2.41, PBLUC_R_SQUARED 0.0684, read-out: LUCIFERASE INFECTION ASSAY - IC50): 8.61 µM |
| CN1CCN(C(=O)c2cccc(-c3cnc4cnc(-c5ccccc5Oc5ccccc5)cn34)c2)CC1 | > 6.74 µM |  | IC50 (PBLUC_HILL_SLOPE 3.72, PBLUC_R_SQUARED 0.499, read-out: LUCIFERASE INFECTION ASSAY - IC50): 3.93 µM |
| O=[N+]([O-])c1cc(Cl)ccc1N1CCN(c2ncnc3sc4c(c23)CCC4)CC1 | > 10 µM |  | IC50 (FFLUC_HILL_SLOPE 15.4, FFLUC_R_SQUARED 0.646, read-out: LUCIFERASE INFECTION ASSAY - IC50): > 10 µM |
| CC(OC(=O)c1n[nH]c(=O)c2ccccc12)C(=O)N(CCC#N)c1ccccc1 (stereo not drawn) | > 10 µM | > 10 µM |  |
| C=C(C)C(=O)Oc1cccc(Oc2c(F)c(F)c(-c3c(F)c(F)c(Oc4cccc(OC(=O)C(=C)C)c4)c(F)c3F)c(F)c2F)c1 | > 10 µM |  | IC50 (FFLUC_HILL_SLOPE 16.5, FFLUC_R_SQUARED 0.83, read-out: LUCIFERASE INFECTION ASSAY - IC50): > 10 µM |
| COc1cccc(N2C(C)=CC(=C(C#N)c3nc4ccccc4s3)C=C2C)c1 | > 10 µM |  | IC50 (FFLUC_HILL_SLOPE 12.5, FFLUC_R_SQUARED 0.607, HEPG2TOX_HILL_SLOPE 3.97, HEPG2TOX_R_SQUARED 0.941, PBLUC_HILL_SLOPE 8.86, PBLUC_R_SQUARED 0.0114, read-out: LUCIFERASE INFECTION ASSAY - IC50): > 10 µM |
